The text below walks through data of paper PMC12548168, “Pitavastatin is a novel Mcl-1 inhibitor that overcomes paclitaxel resistance in triple-negative breast cancer” (Experimental Hematology & Oncology, 2025).

The target in assay [1] is T1, Mcl-1 (myeloid cell leukemia 1) (Homo sapiens, UniProt Q07820).
T1 construct: gene MCL1
Put plainly: surface plasmon resonance (SPR), reference Mcl-1 inhibitor (Supplementary Fig. S2). The format is binding. A general note: SPR reads the build-up and loss of mass on a sensor chip optically.

The target of assay [2] is T1, Mcl-1 (myeloid cell leukemia 1). Put plainly: surface plasmon resonance (SPR). The format is binding.

T1 sequence (Q07820 whole entry): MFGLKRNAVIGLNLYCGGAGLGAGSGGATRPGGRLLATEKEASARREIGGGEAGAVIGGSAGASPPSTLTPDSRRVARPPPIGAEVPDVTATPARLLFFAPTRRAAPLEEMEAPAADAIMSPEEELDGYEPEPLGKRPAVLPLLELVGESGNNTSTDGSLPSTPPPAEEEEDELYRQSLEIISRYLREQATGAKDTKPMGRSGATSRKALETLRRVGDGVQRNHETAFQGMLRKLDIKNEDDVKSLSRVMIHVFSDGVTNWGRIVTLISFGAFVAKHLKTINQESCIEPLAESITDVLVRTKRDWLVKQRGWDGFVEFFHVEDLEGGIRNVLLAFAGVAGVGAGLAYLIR

As usually defined, the Kd is a measure of binding affinity in units of concentration. A higher Kd goes with a looser complex. The compound `Cc1cc2c(C(C)C)c(O)c(O)c(C=O)c2c(O)c1-c1c(C)cc2c(C(C)C)c(O)c(O)c(C=O)c2c1O` [AT101] returned a Kd in assay [1] of 9.48 µM.
`O=C(O)C[C@H](O)C[C@H](O)/C=C/c1c(C2CC2)nc2ccccc2c1-c1ccc(F)cc1` [PITA, Pitavastatin] registered a Kd in assay [2] of 3.91 µM.
